Columns and labels:
[1] = Evaluation for umami/kokumi taste and mouthfeel by a team of 8 trained panelists, in 0.3% aqueous NaCl solution; settings: 10 ppm in 0.3% aqueous NaCl solution
Protocol: Liquid 2-(3-phenylpropyl)pyridine was obtained from R.C. Treatt & Co Ltd, UK (reference SA362100/2). It was then diluted into propylene glycol solvent to provide a 10% solution of the 2-(3-phenylpropyl)pyridine, the resulting solution then being added to a 0.3% aqueous NaCl solution to provide a concentration of 2-(3-phenylpropyl)pyridine of 10 ppm.
The sample was evaluated for umami/kokumi taste and mouthfeel by a team of 8 trained panelists.

[2] = prior art, U.S. Pat. No. 5,298,486 column 2 lines 24 to 33; cited from earlier work

Row | SMILES | Description: Mouthfeel [1] | Description: Taste [1] | Kokumi/Umami taste intensity ([1]; scale of 0 to 10, 0 = no Kokumi/Umami effect, 10 = very intense effect) | flavor note [2]
1 | c1ccc(CCCc2ccccn2)cc1 [2-(3-phenylpropyl)pyridine] | Mouthfeel: sweet, | Taste: brown, fatty, | 7 | –
2 | CCCCCCCc1cccnc1 [3-heptylpyridine] | – | – | – | fatty, metallic and fishy
3 | CCCCCCc1cccnc1 [3-hexylpyridine] | – | – | – | fruity

From patent publication US20110020517A1, “TASTE MODIFYING PRODUCT” (priority 2008, published 2011)
